# Assay results taken from patent publication US20070031511A1, “Method of treatment” (priority 2003, published 2007).
# Where two headings read alike, the source gives them in different places.
# Key:
# [1] = tested on: IMGE-5 gastric epithelial cells; experiment: Ggly-stimulated inositol phosphate production in IMGE-5 cells; format: cell-based, mice
# Experimental: Intracellular inositol phosphate production was determined as described previously (Qian et al, 1993). IMGE-5 cells (10^5 cells/ml) were plated in 24-multiwell culture plates in DMEM supplemented with 10% FBS, 200 IU/ml penicillin and 200 μg/ml streptomycin. 24 h later, cells were incubated with DMEM supplemented with antibiotics and Myo-[2-^3H]inositol (2.5 μCi/well) and shifted to 39° C. for 16 h. Cells were then washed with pre-warmed DMEM and incubated (20-30 minutes, 37° C.) with DMEM supplemented with 20 mM LiCl. Loaded cells were then washed in 1 ml of IP buffer (135 mM NaCl, 20 mM N-(2-hydroxyethyl)piperazine-N′-(2-ethanesulfonic acid), 2 mM CaCl2, 1.2 mM MgSO4, 1 mM ethylene glycol-bis(2-aminoethylether)-N,N,N′,N′-tetraacetic acid, 10 mM LiCl, and 0.5% bovine serum albumin, pH 7.45) and incubated with or without agonist in a final volume of 0.5 ml of IP buffer. After 1-h incubation at 37° C., the reaction was stopped by removing the incubation medium and adding 1 ml of a mixture of ethanol/HCl (2000:1; v/v). One ml of each aliquot was applied to a column containing 1.6 ml of a 1:2 (v/v) Dowex AG-1-X8 anion exchange resin in distilled water. […] The radioactivity of each eluate was counted after addition of Complete phase combining system solution (Amersham, UK). […]
# Ggly-stimulated inositol phosphate production was measured in HT29 human colorectal carcinoma cells.
# IMGE-5 cells = experiment: IMGE-5 cell proliferation, [3H]-thymidine incorporation; format: cell-based, mice; conditions: IMGE cells, thymidine uptake; best fit at saturating concentration
# Experimental: In some cases cell proliferation was also measured by [^3H]-thymidine incorporation as described previously (Oiry et al., 2000). Briefly, IMGE-5 cells (10^5/well) were seeded in 24-well plates in medium containing 10% FBS and 1 unit/ml γ-interferon. On the next day cells were serum starved and shifted to 39° C. for 24 hr. Cells were then incubated with or without various compounds at 39° C. for 17 h in medium supplemented with 0.2% bovine serum albumin only. Cells were incubated with 0.5 μCi of [^3H] thymidine in the same medium at 39° C. for 4 h, washed twice with PBS (2.7 mM KCl, 142 mM NaCl, 1.5 mM KH2PO4, 10 mM Na2HPO4, pH 6.95) containing 0.2% bovine serum albumin and incubated at 4° C. for 30 min with 5% trichloroacetic acid. Finally cells were washed with 95% ethanol to remove unincorporated [^3H] thymidine, and lysed with 1 M NaOH. Lysates were transferred to counting vials and neutralized with 1M HCl. The radioactivity of each lysate was counted in a β-counter after the addition of 10 ml of Pico-fluor 40 solution (Packard, Meriden, Conn.).
# In some experiments IMGE-5 cells were seeded in a 96-well plate at a density of 3-5×10^3 cells/well in.DMEM containing 10% FBS, and cultured at 33° C.. On the following day, the cells were serum-starved at 33° C. for 24 h. […] The cells were cultured at 39° C. for 24 h, and then harvested using a NUNC cell harvester. The amount of ^3H-thymidine incorporated through DNA synthesis was detected with a β-counter (Packard, Meriden, Conn.). […]
# rectal mucosa = experiment: Proliferation in the rectal mucosa of rectally defunctioned rats (metaphase-arrested cells); format: in vivo; conditions: colloidal bismuth subcitrate 135 mg/kg/12 hours oral gavage 5 days per week, 4 weeks; Ggly 2.5 nmol/kg/hr
# Experimental: DFO (400 mg/kg) was administered intraperitoneally thrice weekly, and bismuth ions were administered as colloidal bismuth subcitrate (135 mg/kg/12 hours) by oral gavage 5 days per week. After 4 weeks, the rats were injected with vincristine to arrest cycling cells in metaphase, and sacrificed 3 hrs later. Crypt heights in the rectal mucosa, and the number of metaphase arrested cells per crypt, were then determined microscopically.
# Ggly receptor = experiment: [125I]-Ggly binding to the Ggly receptor on IMGE-5 cells; set-up: species or system mice
# Experimental: [^125I]-Ggly binding assays were carried out by previously described methods (Yang et al, 2001). Briefly, 5×10^5 IMGE-5 cells/well were seeded in 6-well plates and grown at 33° C. for 24 hours. The cells were then serum starved and shifted to 39° C. for 24 h. […] Cells were then washed three times in ice-cold PBS and lysed with 1 M NaOH, and the amount of radioactivity bound was measured in a γ-counter.
# CCK-2 receptor = molecular target: T1, CCK-2 receptor (Homo sapiens, UniProt P32239); experiment: Gamide-stimulated proliferation in CHO cells stably transfected with the CCK-2 receptor; format: cell-based; set-up: expressed in transfected cells; host or cells: CHO
# T1 sequence (P32239 1-447): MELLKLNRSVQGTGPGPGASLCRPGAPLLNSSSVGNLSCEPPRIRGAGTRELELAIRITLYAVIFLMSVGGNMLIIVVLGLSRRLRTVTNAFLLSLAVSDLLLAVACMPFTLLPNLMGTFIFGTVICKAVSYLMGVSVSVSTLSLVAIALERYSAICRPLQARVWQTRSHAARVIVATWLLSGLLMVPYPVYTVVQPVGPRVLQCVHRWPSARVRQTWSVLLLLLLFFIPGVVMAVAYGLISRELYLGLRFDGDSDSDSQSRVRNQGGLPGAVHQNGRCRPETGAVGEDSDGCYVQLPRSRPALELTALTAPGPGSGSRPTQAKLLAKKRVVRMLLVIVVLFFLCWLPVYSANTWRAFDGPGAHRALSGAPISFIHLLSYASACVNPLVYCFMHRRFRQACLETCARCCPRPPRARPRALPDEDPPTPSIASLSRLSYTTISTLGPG
# [2] = Quenching of gastrin tryptophan fluorescence by bismuth ions; format: binding; conditions: pH 4.0
# From the text: Values from the indicated number of independent experiments were combined to obtain the mean values (±S.E.) presented above.
compound,measurement,setting,value
"Ggly: glycine-extended gastrin17, 18 amino acid non-amidated gastrin, SEQ ID NO:4, residues 55-72 of progastrin (XGPWLEEEEEAYGWMDFG; (1)..(1) pyroglutamate; listed as Homo sapiens)",Ggly stimulation of inositol phosphate production compared to the control,[1],110%
same,"S (%), maximum % stimulation",IMGE-5 cells,37.3%
[Bi+3] [bismuth ions],Effect on stimulation of proliferation of the rectal mucosa by Ggly,rectal mucosa,completely abolished
same,Inhibition of [125I]-Ggly binding,Ggly receptor; 2 moles Bi3+/mole Ggly,50%
same,Inhibition of [125I]-Ggly binding,Ggly receptor; 8 or 32 moles Bi3+/mole Ggly,complete inhibition
same,Effect on Gamide-stimulated proliferation,CCK-2 receptor,did not significantly inhibit
CSCC[C@H](NC(=O)[C@H](Cc1c[nH]c2ccccc12)NC(=O)CNC(=O)[C@H](Cc1ccc(O)cc1)NC(=O)[C@H](C)NC(=O)[C@H](CCC(=O)O)NC(=O)[C@H](CCC(=O)O)NC(=O)[C@H](CCC(=O)O)NC(=O)[C@H](CCC(=O)O)NC(=O)[C@H](CCC(=O)O)NC(=O)[C@H](CC(C)C)NC(=O)[C@H](Cc1c[nH]c2ccccc12)NC(=O)[C@@H]1CCCN1C(=O)CNC(=O)[C@@H]1CCC(=O)N1)C(=O)N[C@@H](CC(=O)O)C(=O)N[C@@H](Cc1ccccc1)C(N)=O [Gamide],Kd,"[2]; single experiment, two independent sites with identical affinities, read-out: Kd for bismuth ions, line of best fit of FIG. 11",8.6 ± 1.2 µM
same,Kd,"[2]; two identical independent binding sites, mean ± S.E. of 5 experiments, read-out: Bismuth Kd",8.2 ± 0.8 µM
